The structures appear in SMILES notation. pIC50: −log10 of the molar value. Read-outs that look alike come from different tables or passages of the source.

The subject of this assay is AMPA receptor.
Setting [1] is: Table 2, suppression of AMPA-induced calcium influx into nerve cells.
The mark [2] stands for this setting: Table 3, primary culture of rat embryo cerebral cortex nerve cells, 2 μM AMPA, 1 μM MK-801.
Where [3] appears, read: Table 1, primary culture of rat embryo cerebral cortex nerve cells, 2 μM AMPA, 1 μM MK-801.
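Note: primary rat embryonic cortical neurons grown on an astrocyte layer in 96-well plates, used after at least 8 to 10 days in culture, Fura2-AM fluorescence ratio at 340/380 nm excitation.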

Experimental: Cerebral cortex was cut out from the brain of rat of gestational 18 days and treated with trypsin and DNase to disperse the cells. The cells were flown by MEM containing 10% of serum, sown in a culture bottle and astrocytes were proliferated. The astrocytes were re-dispersed by trypsin and sown in a 96-well plate. After incubation for one week, it was confirmed that the astrocytes covered all over the bottom and then the nerve cells of cerebral cortex which was dispersed by the above method were sown thereupon. After incubation for 24 hours, the medium was changed, the incubation was carried out for one week and, after that, the medium was changed to that containing 1 μM of MK-801. Nerve cells which were incubated for not shorter than 8 to 10 days were used.
Calcium influx into the cells was measured using Fura2-AM which was a calcium-sensitive fluorescent dye. It was treated in a medium containing Fura2-AM for 1 hour, incorporated into the cells, exchanged to a Tyrode solution containing 1 μM MK-801 and stimulation was carried out using 2 μM AMPA. Change in the amount of calcium flown into the cells were measured as the change in the fluorescent intensity at the exciting wave length of 340/380 nm.

Turning to `N#Cc1ccccc1-c1cc(-c2ccccn2)cn(-c2cccc(OCCCN3CCCCC3)c2)c1=O` [Example 244, 3-(2-Cyanophenyl)-1-[3-(piperidinopropyloxy)phenyl]-5-(2-pyridyl)-1,2-dihydropyridin-2-one], the pIC50 (usually the IC50 on a negative log10 scale, so that one unit is a factor of ten) under setting [1] is 5.74.

For `O=c1c(-c2nc3cnccc3[nH]2)cc(-c2ccccn2)cn1-c1ccccc1` [Example 367, 3-(1H-Imidazo[4,5-c]pyridin-2-yl)-5-(2-pyridyl)-1-phenyl-1,2-dihydropyridin-2-one], the negative-log IC50 (pIC50) under setting [2] was 6.22.

Take `N#Cc1ccccc1-c1cc(-c2ccc([N+](=O)[O-])cn2)cn(-c2ccccc2)c1=O` [Example 299, 3-(2-Cyanophenyl)-5-(5-nitropyridin-2-yl)-1-phenyl-1,2-dihydropyridin-2-one]: the negative logarithm of the IC50 (pIC50) under setting [1] was 5.36.

Consider `O=c1c(-c2cccnc2)cc(-c2ccccn2)cn1-c1ccccc1` [Example 67, 3-(3-Pyridyl)-5-(2-pyridyl)-1-phenyl-1,2-dihydropyridin-2-one], for which the pIC50 under setting [3] was 5.19.

Take `N#Cc1ccccc1-c1cc(-c2nc3cccc4c3n2CCC4)cn(-c2ccccc2)c1=O` [Example 358, 3-(2-Cyanophenyl)-5-(5,6-dihydro-4H-imidazo[4,5,1-i,j]quinolin-2-yl)-1-phenyl-1,2-dihydropyridin-2-one]: the pIC50 under setting [2] is 5.85.

`O=c1c(-c2ccccc2Cl)cc(Sc2ccc(Cl)cc2)cn1-c1cccnc1` [Example 385, 3-(2-Chlorophenyl)-5-(4-chlorophenylthio)-1-(3-pyridyl)-1,2-dihydropyridin-2-one] showed a pIC50 under setting [2] of 5.96.

Regarding `N#Cc1ccccc1-c1cc(-c2ccccn2)cn(-c2cccc(OCCCCN3CCCCC3)c2)c1=O` [Example 249, 3-(2-Cyanophenyl)-1-[3-(4-piperidinobutyl-1-oxy)phenyl]-5-(2-pyridyl)-1,2-dihydropyridin-2-one], the negative-log IC50 (pIC50) under setting [1] was 6.52.

`O=c1c(-c2ccccc2)cc(-c2ccccn2)cn1-c1cccc(F)c1` [Example 97, 3-Phenyl-5-(2-pyridyl)-1-(3-fluorophenyl)-1,2-dihydropyridin-2-one] gave a pIC50 under setting [3] of 6.40.

`N#Cc1ccccc1-c1cc(-c2nc3ccccc3[nH]2)cn(-c2ccccc2)c1=O` [Example 386, 3-(2-Cyanophenyl)-5-(1H-benzimidazol-2-yl)-1-phenyl-1,2-dihydropyridin-2-one] gave a negative-log IC50 (pIC50) under setting [2] of 5.46.

In the case of `N#Cc1ccccc1-c1cc(-c2ccccc2N)cn(-c2ccccc2)c1=O` [Example 2, 5-(2-Aminophenyl)-3-(2-cyanophenyl)-1-phenyl-1,2-dihydropyridin-2-one], under setting [3], the negative logarithm of the IC50 (pIC50) is 5.74.

Consider `N#Cc1ccccc1-c1cc(-c2ccccn2)cn(-c2ccc3nc(N)sc3c2)c1=O` [Example 166, 1-(2-Aminobenzothiazol-6-yl)-3-(2-cyanophenyl)-5-(2-pyridyl)-1,2-dihydropyridin-2-one], for which the negative-log IC50 (pIC50) under setting [1] was 6.52.

Molecule `CC(C)(C)OC(=O)N1CCC(Cn2cc(-c3ccccn3)cc(-c3ccccc3C#N)c2=O)CC1` [Example 318, 1-[1-(tert-butoxycarbonyl)piperidin-4-yl]methyl-3-(2-cyanophenyl)-5-(2-pyridyl)-1,2-dihydropyridin-2-one] had a negative logarithm of the IC50 (pIC50) under setting [2] of 5.51.

`N#Cc1ccccc1-c1cc(-c2ccccn2)cn(-c2ccsc2)c1=O` [Example 105, 3-(2-Cyanophenyl)-5-(2-pyridyl)-1-(thiophen-3-yl)-1,2-dihydropyridin-2-one] had a negative-log IC50 (pIC50) under setting [3] of 7.52.

Regarding `O=c1c(-c2nc(-c3ccccc3)no2)cc(-c2ccccn2)cn1-c1ccccc1` [Example 390, 3-(3-Phenyl-1,2,4-oxadiazol-5-yl)-1-phenyl-5-(2-pyridyl)-1,2-dihydropyridin-2-one], the pIC50 under setting [2] is 6.00.

Under setting [3], `O=c1c(-c2cccnc2F)cc(-c2ccccn2)cn1-c1ccc(F)cc1` [Example 82, 3-(2-Fluoro-3-pyridyl)-5-(2-pyridyl)-1-(4-fluorophenyl)-1,2-dihydropyridin-2-one] gave a pIC50 of 6.10.

`N#Cc1ccccc1-c1cc(-c2ccsc2)cn(-c2ccccc2)c1=O` [Example 44, 3-(2-Cyanophenyl)-5-(thiophen-3-yl)-1-phenyl-1,2-dihydropyridin-2-one] showed a pIC50 under setting [3] of 6.52.

Under setting [3], `N#Cc1ccc(-n2cc(-c3ccccn3)cc(-c3ccccc3C#N)c2=O)cc1` [Example 93, 3-(2-Cyanophenyl)-5-(2-pyridyl)-1-(4-cyanophenyl)-1,2-dihydropyridin-2-one] had a pIC50 of 5.72.

Turning to `CS(=O)(=O)N1CCC(Oc2cccc(-n3cc(-c4ccccn4)cc(-c4ccccc4C#N)c3=O)c2)CC1` [Example 338, 3-(2-Cyanophenyl)-1-{3-[1-(methanesulfonyl)piperidin-4-yl-oxy]phenyl}-5-(2-pyridyl)-1,2-dihydropyridin-2-one], the pIC50 under setting [2] is 6.40.

Take `Cc1cccc2[nH]c(-c3cc(-c4ccccc4C#N)c(=O)n(-c4ccccc4)c3)nc12` [Example 352, 3-(2-Cyanophenyl)-5-(4-methyl-1H-benzimidazol-2-yl)-1-phenyl-1,2-dihydropyridin-2-one]: the pIC50 under setting [2] was 5.80.

Molecule `N#Cc1ccccc1-c1cc(-c2ccccn2)cn(-c2cccc(OC3CCN(S(=O)(=O)c4ccccc4)CC3)c2)c1=O` [Example 337, 1-{3-[1-(Benzenesulfonyl)piperidin-4-yl-oxy]phenyl}-3-(2-cyanophenyl)-5-(2-pyridyl)-1,2-dihydropyridin-2-one] gave a negative-log IC50 (pIC50) under setting [2] of 6.15.

Turning to `COC(=O)c1cccc(-c2cc(-c3ccccc3C#N)c(=O)n(-c3ccccc3)c2)n1` [Example 303, 3-(2-Cyanophenyl)-5-(2-methoxycarbonylpyridin-6-yl)-1-phenyl-1,2-dihydropyridin-2-one], the negative-log IC50 (pIC50) under setting [2] was 6.05.

For the molecule `O=c1c(-c2ccccc2C(F)(F)F)cc(-c2ccccn2)cn1-c1cccnc1` [Example 132, 3-(2-Trifluoromethylphenyl)-5-(2-pyridyl)-1-(3-pyridyl)-1,2-dihydropyridin-2-one], the negative logarithm of the IC50 (pIC50) under setting [3] is 5.51.

For the molecule `Nc1cccc(-c2cc(-c3ccccn3)cn(-c3ccccc3)c2=O)c1` [Example 220, 3-(3-Aminophenyl)-1-phenyl-5-(2-pyridyl)-1,2-dihydropyridin-2-one], the negative-log IC50 (pIC50) under setting [1] is 6.22.

Take `N#Cc1ccccc1-c1cc(-c2ccccc2F)cn(-c2ccccc2)c1=O` [Example 45, 3-(2-Cyanophenyl)-5-(2-fluorophenyl)-1-phenyl-1,2-dihydropyridin-2-one]: the pIC50 under setting [3] is 6.70.

For `N#Cc1ccccc1-c1cc(NC(=O)c2ccccn2)cn(-c2ccccc2)c1=O` [Example 309, 3-(2-Cyanophenyl)-1-phenyl-5-(2-pyridincarbonyl)amino-1,2-dihydropyridin-2-one], the negative logarithm of the IC50 (pIC50) under setting [2] is 5.39.

With `N#Cc1ccccc1-c1cc(-c2ccccn2)cn(C2=CCCN(Cc3ccccc3)C2)c1=O` [Example 180, 3-(2-Cyanophenyl)-5-(2-pyridyl)-1-(1-benzyl-1,2,3,6-tetrahydropyridin-5-yl)-1,2-dihydropyridin-2-one], under setting [1], the pIC50 is 6.30.

`N#Cc1ccccc1-c1cc(-c2ccoc2)cn(-c2ccccc2)c1=O` [Example 48]: the negative-log IC50 (pIC50) under setting [3] is 7.40.

Consider `O=c1c(-c2cc3ccccc3n2S(=O)(=O)c2ccccc2)cc(-c2ccccn2)cn1-c1ccccc1` [Example 293, 3-[(1-Benzenesulfonyl)indol-2-yl]-1-phenyl-5-(2-pyridyl)-1,2-dihydropyridin-2-one], for which the pIC50 under setting [1] is 5.48.

With `N#Cc1ccccc1-c1cc(-c2ccc3ccccc3c2)cn(-c2cccnc2)c1=O` [Example 211, 3-(2-Cyanophenyl)-5-(2-naphthyl)-1-(3-pyridyl)-1,2-dihydropyridin-2-one], the pIC50 under setting [1] was 5.44.

`CN(C)c1ccc(-c2cc(-c3ccccn3)cn(-c3ccccc3)c2=O)cc1` [Example 234, 3-(4-Dimethylaminophenyl)-1-phenyl-5-(2-pyridyl)-1,2-dihydropyridin-2-one]: under setting [1], the pIC50 is 6.05.

Molecule `O=c1c(-c2ccccc2F)cc(-c2ccccn2)cn1-c1ccccc1` [Example 71, 3-(2-Fluorophenyl)-5-(2-pyridyl)-1-phenyl-1,2-dihydropyridin-2-one] gave a negative-log IC50 (pIC50) under setting [3] of 7.30.

The molecule `O=c1c(S(=O)(=O)c2ccc(Cl)cc2)cc(-c2ccccn2)cn1-c1ccccc1` [Example 382-B, 3-(4-Chlorobenzenesulfonyl)-5-(2-pyridyl)-1-phenyl-1,2-dihydropyridin-2-one] showed a negative-log IC50 (pIC50) under setting [2] of 5.64.

As to `COc1ccncc1-c1cc(-c2ccccn2)cn(-c2ccccc2)c1=O` [Example 77, 3-(4-Methoxy-3-pyridyl)-5-(2-pyridyl)-1-phenyl-1,2-dihydropyridin-2-one], the negative-log IC50 (pIC50) under setting [3] is 7.70.

As to `N#Cc1sccc1-c1cc(-c2ccccn2)cn(-c2ccccc2)c1=O` [Example 391, 3-(2-Cyanothiophen-3-yl)-5-(2-pyridyl)-1-phenyl-1,2-dihydropyridin-2-one], under setting [2], the pIC50 is 7.00.

Under setting [3], `N#Cc1ccccc1-c1cc(-c2ccccn2)cn(-c2cncnc2)c1=O` [Example 111, 3-(2-Cyanophenyl)-5-(2-pyridyl)-1-(pyrimidin-5-yl)-1,2-dihydropyridin-2-one] had a negative logarithm of the IC50 (pIC50) of 6.40.

As to `Nc1ccccc1-c1cc(-c2ccccn2)cn(-c2ccccc2)c1=O` [Example 219, 3-(2-Aminophenyl)-1-phenyl-5-(2-pyridyl)-1,2-dihydropyridin-2-one], the negative logarithm of the IC50 (pIC50) under setting [1] was 5.43.

With `N#Cc1ccccc1-c1cc(-c2ccccn2)cn(-c2cccc3ccccc23)c1=O` [Example 291, 3-(2-Cyanophenyl)-5-(2-pyridyl)-1-(1-naphthyl)-1,2-dihydropyridin-2-one], the negative logarithm of the IC50 (pIC50) under setting [1] is 6.85.

Regarding `CN1CCC(Oc2cccc(-n3cc(-c4ccccn4)cc(-c4ccccc4C#N)c3=O)c2)CC1` [Example 341, 1-[3-(N-methylpiperidin-4-yl-oxy)phenyl]-3-(2-cyanophenyl)-5-(2-pyridyl)-1,2-dihydropyridin-2-one], the pIC50 under setting [2] is 6.70.

In the case of `O=c1c(NC23CC4CC(CC(C4)C2)C3)cc(-c2ccccn2)cn1-c1ccccc1` [Example 176, 3-(1-Adamantylamino)-5-(2-pyridyl)-1-phenyl-1,2-dihydropyridin-2-one], the pIC50 under setting [1] is 5.27.
